# Patent publication US7968554B2, “Pyrazolo[3,4-d]pyrimidine derivatives” (Hoffman-La Roche Inc., priority 2007, dated 2011)
# Biological target: T1, b-Raf V600E (Homo sapiens, UniProt P15056, V600E)
# T1 construct: recombinant human b-Raf residues 416-end containing a V600E mutation; purchased Upstate 14-5M; host or cells: baculovirus, Sf21 insect cells
# Assay: b-Raf V600E mutant HTRF assay with 6H-MEK as substrate (dose response)
# Type: biochemical
# Conditions: kinase enzyme inhibition, 6H-MEK substrate, read-out: bRaf(V600E) IC50
# Description: Kinase Enzyme Inhibition Assay (IC50)
# • Enzyme: recombinant human b-Raf residues 416-end with N-terminal GST-tag from Upstate; (expressed by baculovirus in Sf21 insect cells), 0.26 mg/mL (3.87 μM assuming a molecular weight of 67.2 kD) Cat. #14-530M, Lot #25502AU, stored at −80° C. • Substrate: WT full-length 6H-MEK, 4.94 mg/mL (154.4 μM assuming a MW of 32 kD) stored at −15° C. • Antibodies: Rabbit (α-P-(Ser 217/221)-MEK-1/2 Ab (from Cell Signaling, Cat. #9121B, Lot 14); Eu-(α-rabbit IgG (from Wallac, Cat. #AD0083, Lot 318663, 710 ug/mL, 4.4 μM); (α-6H-SureLight-APC (from Martek, Cat. #AD0059H, Lot E012AB01, 3.03 μM). • Reader: Envision from PerkinElmer, HTRF reading mode with 412 mirror • Assay Plate: Matrix all-black polypropylene plates (Cat. #4344) • Others: Weidman 384 polypropylene plates (REMP) for compound plate. Assay Procedure: • (1) Prepare Kinase Assay Buffer (KAB): 50 mM HEPES (HyClone) pH7, 10 mM MgCl2, 1 mM DTT, 0.1 mM […], and 0.3 mg/ml BSA. • (2) Prepare 6H-MEK (150 nM) in KAB. Add 12 μL/well to the assay plate. • (3) Prepare ATP (66 μM) in KAB. • (4) Dilute compounds to 2.4 mM and any positive controls to 480 μM in DMSO. Perform 10-point 3× dilution in DMSO. Withdraw 2.5 μL/well of DMSO solution and add to 27.5 μL/well ATP solution in (3). • (5) Mix, then add 6 μL/well of solution in (4) to the assay plate for a DMSO concentration of 2.1% during MEK phosphorylation. • (6) Prepare b-Raf WT (100 μM) in KAB. • (7) Add 6 μL/well of KAB in columns 1-2 and 6 μL/well of b-Raf WT in columns 3-24. • (8) Incubate at 37° C. for 30 min. • (9) Prepare rabbit (α-P-(Ser 217/221 )-MEK-1/2 Ab (1:200 from stock) in AB1: 50 mM HEPES pH7, 0.2 mg/ml BSA, and 43 mM EDTA. • (10) To stop reaction, add 6 μL/well of solution from (9) to the assay plate and incubate at 37° C. for 30 min. • (11) Prepare Eu-(α-rabbit IgG (9 nM) and (α-6H-SureLight-APC (180 nM) in AB2: 50 mM HEPES pH7 and 0.2 mg/mL BSA. • (12) Add 6 μL/well of solution from (11) to the assay plate. • (13) For determining the spectrum cross talk factor, prepare 2 samples following steps (1) to (10). For the blank sample, add 6 μL/well of AB2. For the cross talk factor sample, add 6 μL/well of Eu-anti rabbit IgG (9 nM). • (14) Incubate at room temperature for 1.5 hours. • (15) Read HTRF signals at 615 nm and 665 nm on the Envision. Normalize HTRF signals after spectrum cross-talk correction. b-Raf V600E Mutant HTRF Assay With 6H-MEK as Substrate (Dose Response) Assay Principle:
# The assay utilizes 6H-MEK as the substrate. Upon b-Raf V600E phosphorylation, phosphorylated 6H-MEK is detected with rabbit anti-phospho-MEK1/2, Eu-labeled anti-rabbit, and APC-labeled anti-6H antibodies.
# Reagents and Instruments:
# • Enzyme: recombinant human b-Raf residues 416-end containing a V600E mutation with N-terminal GST-tag from Upstate; (expressed by baculovirus in Sf21 insect cells), 0.26 mg/mL ([…] assuming a molecular weight of 67.3 kD) Cat. #14-5M, Lot #25633AU, stored at −80° C. • Substrate: WT full-length 6H-MEK, 4.94 mg/mL (154.4 μM assuming a MW of 32 kD) stored at −15° C. • Antibodies: Rabbit (α-P-(Ser 217/221)-MEK-1/2 Ab (from Cell Signaling, Cat. #9121B, Lot 14); Eu-(α-rabbit IgG (from Wallac, Cat. #AD0083, Lot 318663, 710 ug/mL, 4.4 μM); (α-6H-SureLight-APC (from Martek, Cat. #AD0059H, Lot E012AB01, 3.03 μM). • Reader: Envision from PerkinElmer, HTRF reading mode with 412 mirror • Assay Plate: Matrix all-black polypropylene plates (Cat. #4344) • Others: Weidman 384 polypropylene plates (REMP) for compound plate. Assay Procedure: • (1) Prepare Kinase Assay Buffer (KAB): 50 mM HEPES (HyClone) pH7, 10 mM MgCl2, 1 mM DTT, 0.1 mM […], and 0.3 mg/ml BSA. • (2) Prepare 6H-MEK (150 nM) in KAB. Add 12 μl/well to the assay plate. • (3) Prepare ATP (66 μM) in KAB. • (4) Dilute compounds to 2.4 mM and positive controls to 480 μM in DMSO. • Perform 10-point 3× dilution in DMSO. […]
# T1 sequence (P15056 416-766 V600E): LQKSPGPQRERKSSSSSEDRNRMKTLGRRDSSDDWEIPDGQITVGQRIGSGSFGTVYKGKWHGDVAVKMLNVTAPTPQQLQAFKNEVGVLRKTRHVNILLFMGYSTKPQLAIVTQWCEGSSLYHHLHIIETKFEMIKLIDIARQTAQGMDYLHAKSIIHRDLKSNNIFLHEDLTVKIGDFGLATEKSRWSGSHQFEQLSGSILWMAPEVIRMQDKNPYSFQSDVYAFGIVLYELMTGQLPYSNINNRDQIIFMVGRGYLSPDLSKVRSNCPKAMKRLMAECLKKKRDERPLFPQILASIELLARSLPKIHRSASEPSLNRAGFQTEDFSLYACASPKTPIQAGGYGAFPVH
row,IC50 [µM],SMILES
1,> 10,"Cn1nc(COc2cccc(OCc3ccccc3)c2)c2c(N)ncnc21 [Example 7, 3-(3-Benzyloxy-phenoxymethyl)-1-methyl-1H-pyrazolo[3,4-d]pyrimidin-4-ylamine]"
2,< 10,"Cc1ccc(NC(=O)c2ccc(NCCO)c(Cl)c2)cc1OCc1nn(C)c2ncnc(N)c12 [Example 9, N-[3-(4-Amino-1-methyl-1H-pyrazolo[3,4-d]pyrimidin-3-ylmethoxy)-4-methyl-phenyl]-3-chloro-4-(2-hydroxy-ethylamino)-benzamide]"
3,< 10,"Cc1ccc(NC(=O)c2cccc(Cl)c2)cc1OCc1nn(C)c2ncnc(N)c12 [Example 11, N-[3-(4-Amino-1-methyl-1H-pyrazolo[3,4-d]pyrimidin-3-ylmethoxy)-4-methyl-phenyl]-3-chloro-benzamide]"
4,> 10,"Cc1noc(-c2ccc(C)c(OCc3nn(C)c4ncnc(N)c34)c2)n1 [Example 13, 4-Amino-1-1-methyl-3-[2-methyl-5-(3-methyl-[1,2,4]oxadiazol-5-yl)-phenoxymethyl]-1H-pyrazolo[3,4-d]pyrimidine]"
5,< 10,"Cc1ccc(OCc2ccccc2)cc1OCc1nn(C)c2ncnc(N)c12 [Example 15, 3-(5-Benzyloxy-2-methyl-phenoxymethyl)-1-methyl-1H-pyrazolo[3,4-d]pyrimidin-4-ylamine]"
6,< 10,"Cc1ccc(C(=O)Nc2ccc(Cl)cc2)cc1OCc1nn(C)c2ncnc(N)c12 [Example 17, 3-(4-Amino-1-methyl-1H-pyrazolo[3,4-d]pyrimidin-3-ylmethoxy)-N-(4-chloro-phenyl)-4-methyl-benzamide]"
7,< 10,"Cc1ccc(OCc2ccc(Cl)cc2)cc1OCc1nn(C)c2ncnc(N)c12 [Example 19, 3-[5-(4-Chloro-benzyloxy)-2-methyl-phenoxymethyl]-1-methyl-1H-pyrazolo[3,4-d]pyrimidin-4-ylamine]"
8,> 10,"Cc1nnc(-c2ccc(C)c(OCc3nn(C)c4ncnc(N)c34)c2)o1 [Example 21, 1-Methyl-3-[2-methyl-5-(5-methyl-[1,3,4]oxadiazol-2-yl)-phenoxymethyl]-1H-pyrazolo[3,4-d]pyrimidin-4-ylamine]"
